Experimental data: patent publication US9493487B2, “3-(1H-imidazo[4,5-C]pyridin-2-YL)-1H-pyrazolo[3,4-B]pyridine and therapeutic uses thereof” (Samumed, LLC, priority 2014, dated 2016)

Tested on: Wnt activity (Sp5-Luc reporter, SW480 colon carcinoma cells)
Experiment: Sp5-Luc Wnt reporter gene assay in SW480 colon carcinoma cells
Assay type: cell-based
Settings: Homo sapiens; SW480 cells stably expressing Sp5-Luc reporter; 42 h incubation; BrightGlo luminescence normalized to DMSO
From the text: The screening assay for Wnt activity is described as follows. Reporter cell lines can be generated by stably transducing cancer cell lines (e.g., colon cancer) or primary cells (e.g., IEC-6 intestinal cells) with a lentiviral construct that includes a Wnt-responsive promoter driving expression of the firefly luciferase gene.
SW480 colon carcinoma cells were transduced with a lentiviral vector expressing luciferase with a human Sp5 promoter consisting of a sequence of eight TCF/LEF binding sites. SW480 cells stably expressing the Sp5-Luc reporter gene and a hygromycin resistance gene were selected by treatment with 150 μg/ml of hygromycin for 7 days. These stably transduced SW480 cells were expanded in cell culture and used for all further screening activities. For Sp5-Luc reporter gene assays, the cells were plated at 10,000 cells/well in 96-well plates with growth medium containing 10% fetal calf serum and incubated overnight at 37° C. and 5% CO2. Each compound was dissolved in DMSO as a 10 mM stock in standard j-vials and used to prepare compound source plates in dose-response format with 3-fold serial dilutions and a 10 mM top concentration. Compound transfer from serially diluted source plates to assay plates containing the cells was accomplished using a pintool (Multimek 96, Beckman equipped with V&P Scientific FP1S50H pins) based liquid handling protocol. This protocol used a slotted pin to transfer 50 nl of compound from a source plate well to an assay plate well containing 50 μl of cells in growth medium. […] Control wells received 50 nl of DMSO treatment for normalization and calculating IC50 values. The treated cells were incubated at 37° C. and 5% CO2 for an additional forty-two hours. Following incubation, the growth medium was removed and 50 μl of BrightGlo luminescence reagent (Promega) was added to each well of the 96-well assay plates. The plates were placed on an orbital shaker for 5 min and then luminescence was quantified on the Victor3 (Perkin Elmer) plate reader. Readings were normalized to DMSO only treated cells, and normalized activities were utilized for IC50 calculations using the dose-response log (inhibitor) vs. response-variable slope (four parameters) nonlinear regression feature available in GraphPad Prism 5.0 or 6.0.

| SMILES | IC50 [µM] |
| --- | --- |
| Fc1cccc(-c2nccc3[nH]c(-c4n[nH]c5ncc(-c6cncc(CN7CCC(F)(F)C7)c6)cc45)nc23)c1 [Compound 25, 5-(5-((3,3-Difluoropyrrolidin-1-yl)methyl)pyridin-3-yl)-3-(4-(3-fluorophenyl)-1H-imidazo[4,5-c]pyridin-2-yl)-1H-pyrazolo[3,4-b]pyridine] | 0.0339 |
| Fc1ccc(-c2nccc3[nH]c(-c4n[nH]c5ncc(-c6cncnc6)cc45)nc23)cc1 [Compound 52, 3-(4-(4-Fluorophenyl)-1H-imidazo[4,5-c]pyridin-2-yl)-5-(pyrimidin-5-yl)-1H-pyrazolo[3,4-b]pyridine] | 0.155 |
| c1cncc(-c2cnc3[nH]nc(-c4nc5c(-c6cccnc6)nccc5[nH]4)c3c2)c1 [Compound 82, 5-(Pyridin-3-yl)-3-(4-(pyridin-3-yl)-1H-imidazo[4,5-c]pyridin-2-yl)-1H-pyrazolo[3,4-b]pyridine] | 0.0419 |
| c1cncc(-c2nccc3[nH]c(-c4n[nH]c5ncc(-c6cncc(CN7CCCCC7)c6)cc45)nc23)c1 [Compound 93, 5-(5-(Piperidin-1-ylmethyl)pyridin-3-yl)-3-(4-(pyridin-3-yl)-1H-imidazo[4,5-c]pyridin-2-yl)-1H-pyrazolo[3,4-b]pyridine] | 3.88 |
| O=C(Nc1cncc(-c2cnc3[nH]nc(-c4nc5c(-c6ccncc6)nccc5[nH]4)c3c2)c1)C1CCCCC1 [Compound 126, N-(5-(3-(4-(Pyridin-4-yl)-1H-imidazo[4,5-c]pyridin-2-yl)-1H-pyrazolo[3,4-b]pyridin-5-yl)pyridin-3-yl)cyclohexanecarboxamide] | 1.12 |
| Cc1cn(-c2nccc3[nH]c(-c4n[nH]c5ncc(-c6cncc(NC(=O)C(C)(C)C)c6)cc45)nc23)cn1 [Compound 190, N-(5-(3-(4-(4-Methyl-1H-imidazol-1-yl)-1H-imidazo[4,5-c]pyridin-2-yl)-1H-pyrazolo[3,4-b]pyridin-5-yl)pyridin-3-yl)pivalamide] | 1.58 |
| CC(C)C(=O)Nc1cncc(-c2cnc3[nH]nc(-c4nc5c(N6CCN(C)CC6)nccc5[nH]4)c3c2)c1 [Compound 217, N-(5-(3-(4-(4-Methylpiperazin-1-yl)-1H-imidazo[4,5-c]pyridin-2-yl)-1H-pyrazolo[3,4-b]pyridin-5-yl)pyridin-3-yl)isobutyramide] | 0.673 |
| CN1CCN(c2nccc3[nH]c(-c4n[nH]c5ncc(-c6cncc(NC(=O)C7CCCC7)c6)cc45)nc23)CC1 [Compound 229, N-(5-(3-(4-(4-Methylpiperazin-1-yl)-1H-imidazo[4,5-c]pyridin-2-yl)-1H-pyrazolo[3,4-b]pyridin-5-yl)pyridin-3-yl)cyclopentanecarboxamide] | 1.55 |
| CN1CCN(c2nccc3[nH]c(-c4n[nH]c5ncc(-c6cncnc6)cc45)nc23)CC1 [Compound 234, 3-(4-(4-Methylpiperazin-1-yl)-1H-imidazo[4,5-c]pyridin-2-yl)-5-(pyrimidin-5-yl)-1H-pyrazolo[3,4-b]pyridine] | 0.179 |
| CCNCc1cncc(-c2cnc3[nH]nc(-c4nc5c(-c6ccoc6)nccc5[nH]4)c3c2)c1 [Compound 266, N-((5-(3-(4-(Furan-3-yl)-1H-imidazo[4,5-c]pyridin-2-yl)-1H-pyrazolo[3,4-b]pyridin-5-yl)pyridin-3-yl)methyl)ethanamine] | 0.339 |
| CCCCC(=O)Nc1cncc(-c2cnc3[nH]nc(-c4nc5c(-c6ccoc6)nccc5[nH]4)c3c2)c1 [Compound 278, N-(5-(3-(4-(Furan-3-yl)-1H-imidazo[4,5-c]pyridin-2-yl)-1H-pyrazolo[3,4-b]pyridin-5-yl)pyridin-3-yl)pentanamide] | 0.056 |
| CCCC(=O)Nc1cncc(-c2cnc3[nH]nc(-c4nc5c(-c6cc(F)cc(CNS(C)(=O)=O)c6)nccc5[nH]4)c3c2)c1 [Compound 407, N-(5-(3-(4-(3-Fluoro-5-(methylsulfonamidomethyl)phenyl)-1H-imidazo[4,5-c]pyridin-2-yl)-1H-pyrazolo[3,4-b]pyridin-5-yl)pyridin-3-yl)butyramide] | 0.0741 |
| CS(=O)(=O)NCc1cc(F)cc(-c2nccc3[nH]c(-c4n[nH]c5ncc(-c6cncc(CNCc7ccccc7)c6)cc45)nc23)c1 [Compound 413, N-(3-(2-(5-(5-((Benzylamino)methyl)pyridin-3-yl)-1H-pyrazolo[3,4-b]pyridin-3-yl)-1H-imidazo[4,5-c]pyridin-4-yl)-5-fluorobenzyl)methanesulfonamide] | 0.143 |
| Fc1cccc(-c2nccc3[nH]c(-c4n[nH]c5ncc(C6=CCNCC6)cc45)nc23)c1 [Compound 886, 3-(4-(3-Fluorophenyl)-1H-imidazo[4,5-c]pyridin-2-yl)-5-(1,2,3,6-tetrahydropyridin-4-yl)-1H-pyrazolo[3,4-b]pyridine] | 3.7 |
| Fc1cccc(-c2nccc3[nH]c(-c4n[nH]c5ncc(-c6cncc(OC7CCCCC7)c6)cc45)nc23)c1 [Compound 891, 5-(5-(Cyclohexyloxy)pyridin-3-yl)-3-(4-(3-fluorophenyl)-1H-imidazo[4,5-c]pyridin-2-yl)-1H-pyrazolo[3,4-b]pyridine] | 0.935 |
| Fc1cccc(-c2nccc3[nH]c(-c4n[nH]c5ncc(-c6cncc(OCCN7CCCC7)c6)cc45)nc23)c1 [Compound 894, 3-(4-(3-Fluorophenyl)-1H-imidazo[4,5-c]pyridin-2-yl)-5-(5-(2-(pyrrolidin-1-yl)ethoxy)pyridin-3-yl)-1H-pyrazolo[3,4-b]pyridine] | 1.5 |
| Oc1cncc(-c2cnc3[nH]nc(-c4nc5c(-c6cccc(F)c6)nccc5[nH]4)c3c2)c1 [Compound 897, 5-(3-(4-(3-Fluorophenyl)-1H-imidazo[4,5-c]pyridin-2-yl)-1H-pyrazolo[3,4-b]pyridin-5-yl)pyridin-3-ol] | 0.023 |
| Fc1cccc(-c2nccc3[nH]c(-c4n[nH]c5ncc(-c6cncc(OCc7ccccc7)c6)cc45)nc23)c1 [Compound 898, 5-(5-(Benzyloxy)pyridin-3-yl)-3-(4-(3-fluorophenyl)-1H-imidazo[4,5-c]pyridin-2-yl)-1H-pyrazolo[3,4-b]pyridine] | 3.27 |
| O=C(CC1CCCCC1)Nc1cncc(-c2cnc3[nH]nc(-c4nc5c(-c6cccc(F)c6)nccc5[nH]4)c3c2)c1 [Compound 899, 2-Cyclohexyl-N-(5-(3-(4-(3-fluorophenyl)-1H-imidazo[4,5-c]pyridin-2-yl)-1H-pyrazolo[3,4-b]pyridin-5-yl)pyridin-3-yl)acetamide] | 1.97 |
| Fc1cccc(-c2nccc3[nH]c(-c4n[nH]c5ncc(-c6ccccn6)cc45)nc23)c1 [Compound 901, 3-(4-(3-Fluorophenyl)-1H-imidazo[4,5-c]pyridin-2-yl)-5-(pyridin-2-yl)-1H-pyrazolo[3,4-b]pyridine] | > 10 |
| CC(C)CC(=O)Nc1cncc(-c2cnc3[nH]nc(-c4nc5c(-c6cc(F)cc(OCCN(C)C)c6)nccc5[nH]4)c3c2)c1 [Compound 1192, N-(5-(3-(4-(3-(2-(Dimethylamino)ethoxy)-5-fluorophenyl)-1H-imidazo[4,5-c]pyridin-2-yl)-1H-pyrazolo[3,4-b]pyridin-5-yl)pyridin-3-yl)-3-methylbutanamide] | 0.4 |
| CC(C)CC(=O)Nc1cncc(-c2cnc3[nH]nc(-c4nc5c(-c6cc(F)cc(OCCN7CCCC7)c6)nccc5[nH]4)c3c2)c1 [Compound 1236, N-(5-(3-(4-(3-Fluoro-5-(2-(pyrrolidin-1-yl)ethoxy)phenyl)-1H-imidazo[4,5-c]pyridin-2-yl)-1H-pyrazolo[3,4-b]pyridin-5-yl)pyridin-3-yl)-3-methylbutanamide] | 0.445 |
| CC(C)CC(=O)Nc1cncc(-c2cnc3[nH]nc(-c4nc5c(-c6cc(O)cc(F)c6)nccc5[nH]4)c3c2)c1 [Compound 1280, N-(5-(3-(4-(3-Fluoro-5-hydroxyphenyl)-1H-imidazo[4,5-c]pyridin-2-yl)-1H-pyrazolo[3,4-b]pyridin-5-yl)pyridin-3-yl)-3-methylbutanamide] | 0.09 |
| COc1cc(F)cc(-c2nccc3[nH]c(-c4n[nH]c5ncc(-c6cncc(NC(=O)CC(C)C)c6)cc45)nc23)c1 [Compound 1324, N-(5-(3-(4-(3-Fluoro-5-methoxyphenyl)-1H-imidazo[4,5-c]pyridin-2-yl)-1H-pyrazolo[3,4-b]pyridin-5-yl)pyridin-3-yl)-3-methylbutanamide] | 0.085 |
